# Assay results reported in US20230279020A9, “CARM1 INHIBITORS AND USES THEREOF” (Epizyme, Inc., priority 2013, published 2023).
# Biological target: Human CARM1 (PRMT4) (Homo sapiens (Human), UniProt Q86X55)
# Assay: CARM1 enzyme assay on peptide substrate (3H-SAM Flashplate)
# Conditions: Biochemical potencies, classification codes; read-out: Biochem IC50
# Chain of Human CARM1 (PRMT4) (Q86X55 other isoform, or with tags, fused parts or gaps isoform Q86X55-1): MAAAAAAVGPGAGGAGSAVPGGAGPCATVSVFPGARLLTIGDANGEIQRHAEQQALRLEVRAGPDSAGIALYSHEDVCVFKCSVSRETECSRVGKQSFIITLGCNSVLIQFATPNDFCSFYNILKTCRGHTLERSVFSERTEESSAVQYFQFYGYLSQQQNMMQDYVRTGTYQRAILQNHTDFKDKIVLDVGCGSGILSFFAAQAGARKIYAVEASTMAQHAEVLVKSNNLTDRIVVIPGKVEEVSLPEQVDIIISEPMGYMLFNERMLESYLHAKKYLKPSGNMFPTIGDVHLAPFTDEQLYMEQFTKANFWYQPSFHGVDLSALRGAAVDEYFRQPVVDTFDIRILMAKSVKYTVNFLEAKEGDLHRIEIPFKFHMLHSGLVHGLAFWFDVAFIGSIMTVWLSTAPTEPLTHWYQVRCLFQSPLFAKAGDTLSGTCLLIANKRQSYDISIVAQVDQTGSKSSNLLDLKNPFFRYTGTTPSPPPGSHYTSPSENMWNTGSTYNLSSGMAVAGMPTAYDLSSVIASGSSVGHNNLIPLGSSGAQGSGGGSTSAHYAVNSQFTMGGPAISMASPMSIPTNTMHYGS
row,SMILES,IC50
1,CNCC(O)COc1cccc(-c2nc(-c3c(C)noc3C)cc(N3CCN(C4CCOCC4)CC3)n2)c1 (centres unmarked) [Example 166-1a],< 100 nM
2,CCS(=O)(=O)N1CCCC(CNc2nc(-c3cccc(OCC(O)CNC)c3)nc(-c3c(C)noc3C)c2C)C1 (centres unmarked) [Example 167-1a],< 100 nM
3,CNC[C@@H](O)COc1ccc(Cl)c(-c2nc(N[C@@H]3CCN(C4CC4)C[C@@H]3F)c(C)c(-c3c(C)noc3C)n2)c1 [Example 167-3],< 100 nM
4,CCS(=O)(=O)N1CCC(Nc2nc(-c3cccc(OCC(O)CNC)c3)nc(-c3c(C)noc3C)c2C)CC1 (centres unmarked) [Example 168-1a],< 100 nM
5,CNC[C@@H](O)COc1ccc(Cl)c(-c2nc(-c3c(C)noc3C)c(Cl)c(N3Cc4cccnc4C3)n2)c1 [Example 168-3],< 100 nM
6,CNC[C@H](O)COc1cccc(-c2nc(NC3CCN(C(=O)OC)CC3)c(C)c(-c3c(C)noc3C)n2)c1 [Example 169-1a],< 100 nM
7,CNC[C@@H](O)COc1ccc(Cl)c(-c2nc(N[C@H]3CCN(C(=O)OC)[C@@H](C)C3)c(C)c(-c3c(C)noc3C)n2)c1 [Example 169-3],< 100 nM
8,CNC[C@@H](O)COc1cccc(-c2nc(NC3CCN(C(=O)OC)CC3)c(C)c(-c3c(C)noc3C)n2)c1 [Example 170-1a],< 100 nM
9,CNC[C@@H](O)COc1ccc(Cl)c(-c2nc(N[C@H]3CCN(C4CC4)[C@@H](C)C3)c(C)c(-c3c(C)noc3C)n2)c1 [Example 170-3],< 100 nM
10,CNCC(O)COc1cccc(-c2nc(NCC3CN(C)CCO3)c(C)c(-c3c(C)noc3C)n2)c1 (centres unmarked) [Example 171-1a],< 100 nM
11,Cc1noc(C)c1-c1nc(-c2cc(OC[C@H](O)CN(C)C)ccc2Cl)nc(N[C@H]2CCN(C3CC3)[C@@H](C)C2)c1C [Example 171-3],< 100 nM
12,CCOC(=O)N1CCC(N(C)c2cc(-c3c(C)noc3C)nc(-c3cccc(OCC(O)CNC)c3)n2)CC1 (centres unmarked) [Example 172-1a],< 100 nM
13,CNC[C@@H](O)COc1ccc(Cl)c(-c2nc(N[C@H]3C[C@@H](C)O[C@@H](C)C3)c(C)c(-c3c(C)noc3C)n2)c1 [Example 172-3],< 100 nM
14,CNC[C@@H](O)COc1ccc(Cl)c(-c2nc(N[C@H]3C[C@@H](C)O[C@@H](C)C3)c(Cl)c(-c3c(C)noc3C)n2)c1 [Example 173-3],< 100 nM
15,CNCC(O)COc1cccc(-c2nc(-c3c(C)noc3C)cc(N3CCN(CC(F)F)[C@H](C)C3)n2)c1 (some centres unmarked) [Example 174-1a],< 100 nM
16,CNC[C@@H](O)COc1ccc(Cl)c(-c2nc(-c3c(C)noc3C)c(C)c(N3CCc4ccncc43)n2)c1 [Example 174-3],< 100 nM
17,CNCC(O)COc1cccc(-c2nc(-c3c(C)noc3C)cc(N3CCN(C)[C@H](C)C3)n2)c1 (some centres unmarked) [Example 175-1a],< 100 nM
18,CNC[C@@H](O)COc1ccc(Cl)c(-c2nc(-c3c(C)noc3C)c(C)c(N3CC4(CCN(C(=O)OC)C4)C3)n2)c1 [Example 175-3],< 100 nM
19,CNCC(O)COc1cccc(-c2nc(-c3c(C)noc3C)c(C)c(N3CCO[C@@H](CN(C)C(=O)N(C)C)C3)n2)c1 (some centres unmarked) [Example 176-1a],< 100 nM
20,CNC[C@@H](O)COc1ccc(Cl)c(-c2nc(-c3c(C)noc3C)c(C)c(N3CC4(CCN(C5CC5)C4)C3)n2)c1 [Example 176-3],< 100 nM
21,CNCC(O)COc1cccc(-c2nc(-c3c(C)noc3C)c(C)c(N3CCC[C@@H](NC)C3)n2)c1 (some centres unmarked) [Example 177-1a],< 100 nM
22,CNC[C@@H](O)COc1ccc(Cl)c(-c2nc(-c3c(C)noc3C)c(C)c(N3CCC4(CN(C(=O)OC)C4)C3)n2)c1 [Example 177-3],< 100 nM

row,SMILES,IC50
1,CC[C@H]1CN(c2nc(-c3cccc(OCC(O)CNC)c3)nc(-c3c(C)noc3C)c2C)CCN1C1CC1 (some centres unmarked) [Example 178-1a],< 100 nM
2,CNC[C@@H](O)COc1ccc(Cl)c(-c2nc(-c3c(C)noc3C)c(C)c(N3CCC4(C3)CN(C3CC3)C4)n2)c1 [Example 178-3],< 100 nM
3,CNCC(O)COc1cccc(-c2nc(-c3c(C)noc3C)c(C)c(N3CCC4(CC3)CN(S(C)(=O)=O)C4)n2)c1 (centres unmarked) [Example 179-1a],< 100 nM
4,CNC[C@@H](O)COc1ccc(Cl)c(-c2nc(N[C@@H]3CO[C@H](C)C3)c(C)c(-c3c(C)noc3C)n2)c1 [Example 179-3],< 100 nM
5,CNC[C@@H](O)COc1ccc(Cl)c(-c2nc(N[C@@H]3CO[C@H](C)C3)c(Cl)c(-c3c(C)noc3C)n2)c1 [Example 180-3],< 100 nM
6,CNCC(O)COc1cccc(-c2nc(OC3CCOCC3)c(C)c(-c3c(C)noc3C)n2)c1 (centres unmarked) [Example 181-1a],< 100 nM
7,CNC[C@@H](O)COc1ccc(Cl)c(-c2nc(N[C@@H]3CO[C@@H](C)C3)c(Cl)c(-c3c(C)noc3C)n2)c1 [Example 181-3],< 100 nM
8,CNCC(O)COc1cccc(-c2nc(OCC3CCOCC3)c(C)c(-c3c(C)noc3C)n2)c1 (centres unmarked) [Example 182-1a],< 100 nM
9,CNC[C@@H](O)COc1ccc(Cl)c(-c2nc(N[C@@H]3C[C@@H](C)O[C@@H](C)C3)c(C)c(-c3c(C)noc3C)n2)c1 [Example 182-3],< 100 nM
10,CNC[C@@H](O)COc1cccc(-c2nc(NCC3CCOCC3)c(C)c(-c3c(C)noc3C)n2)c1 [Example 183-1a],< 100 nM
11,CNC[C@@H](O)COc1ccc(Cl)c(-c2nc(N[C@@H]3C[C@@H](C)O[C@@H](C)C3)c(Cl)c(-c3c(C)noc3C)n2)c1 [Example 183-3],< 100 nM
12,CNCC(O)COc1cccc(-c2nc(NCC3CCN(C(=O)OC)CC3)c(C)c(-c3c(C)noc3C)n2)c1 (centres unmarked) [Example 184-1a],< 100 nM
13,CNC[C@@H](O)COc1ccc(Cl)c(-c2nc(-c3c(C)noc3C)c(C)c(N3CC(F)(F)C3)n2)c1 [Example 184-3],< 100 nM
14,CNCC(O)COc1cccc(-c2nc(NC3CCN(C4CC4)CC3)c(C)c(-c3c(C)noc3C)n2)c1 (centres unmarked) [Example 185-1a],< 100 nM
15,CNC[C@@H](O)COc1ccc(F)c(-c2nc(-c3c(C)noc3C)c(C)c(N3Cc4cc(Cl)cnc4C3)n2)c1 [Example 185-3],< 100 nM
16,CNCC(O)COc1cccc(-c2nc(NC3CCN(C(=O)OC)C3)c(C)c(-c3c(C)noc3C)n2)c1 (centres unmarked) [Example 186-1a],< 100 nM
17,CNC[C@@H](O)COc1ccc(Cl)c(-c2nc(-c3c(C)noc3C)c(C)c(N3C[C@H]4COC[C@H]4C3)n2)c1 [Example 186-3],< 100 nM
18,CNCC(O)COc1ccc(Cl)c(-c2nc(NC3CCN(C(=O)OC)CC3)c(Cl)c(-c3c(C)noc3C)n2)c1 (centres unmarked) [Example 187-1a],< 100 nM
19,CNC[C@@H](O)COc1ccc(Cl)c(-c2nc(-c3c(C)noc3C)c(C)c(N3CCOC3=O)n2)c1 [Example 187-3],< 100 nM
20,CNCC(O)COc1cccc(-c2nc(NC3CCN(CC(F)F)CC3)c(C)c(-c3c(C)noc3C)n2)c1 (centres unmarked) [Example 188-1a],< 100 nM
21,CNC[C@@H](O)COc1ccc(Cl)c(-c2nc(NC3CC(F)C3)c(C)c(-c3c(C)noc3C)n2)c1 (some centres unmarked) [Example 188-3],< 100 nM
22,CCOC(=O)N1CCC(Nc2nc(-c3cccc(OCC(O)CNC)c3)nc(-c3c(C)noc3C)c2C)CC1 (centres unmarked) [Example 189-1a],< 100 nM

row,SMILES,IC50
1,CNC[C@@H](O)COc1ccc(Cl)c(-c2nc(NC3CC(F)(F)C3)c(C)c(-c3c(C)noc3C)n2)c1 [Example 189-3],< 100 nM
2,CCOC(=O)N1CCCC(Nc2nc(-c3cccc(OCC(O)CNC)c3)nc(-c3c(C)noc3C)c2C)C1 (centres unmarked) [Example 190-1a],< 100 nM
3,CNC[C@@H](O)COc1ccc(Cl)c(-c2nc(-c3c(C)noc3C)c(C)c(N3Cc4cncnc4C3)n2)c1 [Example 190-3],< 100 nM
4,CCOC(=O)N1CCC(CNc2nc(-c3cccc(OCC(O)CNC)c3)nc(-c3c(C)noc3C)c2C)CC1 (centres unmarked) [Example 191-1a],< 100 nM
5,CCO[C@@H]1CCC[C@H]1Nc1nc(-c2cc(OC[C@H](O)CNC)ccc2F)nc(-c2c(C)noc2C)c1C [Example 191-3],< 100 nM
6,CCS(=O)(=O)N1CCC(CNc2nc(-c3cccc(OCC(O)CNC)c3)nc(-c3c(C)noc3C)c2C)CC1 (centres unmarked) [Example 192-1a],< 100 nM
7,CNC[C@@H](O)COc1ccc(Cl)c(-c2nc(-c3c(C)noc3C)c(C)c(N3Cc4nc(C)sc4C3)n2)c1 [Example 192-3],< 100 nM
8,CNCC(O)COc1cccc(-c2nc(NCC3CCCN(CC(F)F)C3)c(C)c(-c3c(C)noc3C)n2)c1 (centres unmarked) [Example 193-1a],< 100 nM
9,CCOC(=O)N1CCCC(CNc2nc(-c3cccc(OCC(O)CNC)c3)nc(-c3c(C)noc3C)c2C)C1 (centres unmarked) [Example 194-1a],< 100 nM
10,CNC[C@@H](O)COc1ccc(Cl)c(-c2nc(N[C@@H]3CCN(C)C[C@@H]3F)c(C)c(-c3c(C)noc3C)n2)c1 [Example 194-3],< 100 nM
11,CNCC(O)COc1cccc(-c2nc(NC3CCN(CC(F)F)C3)c(C)c(-c3c(C)noc3C)n2)c1 (centres unmarked) [Example 195-1a],< 100 nM
12,CNC[C@@H](O)COc1ccc(Cl)c(-c2nc(N[C@H]3CCN(C4CC4)C[C@H]3F)c(Cl)c(-c3c(C)noc3C)n2)c1 [Example 195-3],< 100 nM
13,CCOC(=O)N1CCC(Nc2nc(-c3cccc(OCC(O)CNC)c3)nc(-c3c(C)noc3C)c2C)C1 (centres unmarked) [Example 196-1a],< 100 nM
14,CNC[C@@H](O)COc1ccc(Cl)c(-c2nc(N[C@H]3CCO[C@H](C)C3)c(C)c(-c3c(C)noc3C)n2)c1 [Example 196-3],< 100 nM
15,CCS(=O)(=O)N1CCC(Nc2nc(-c3cccc(OCC(O)CNC)c3)nc(-c3c(C)noc3C)c2C)C1 (centres unmarked) [Example 197-1a],< 100 nM
16,CNC[C@@H](O)COc1ccc(Cl)c(-c2nc(N[C@H]3CCO[C@H](C)C3)c(Cl)c(-c3c(C)noc3C)n2)c1 [Example 197-3],< 100 nM
17,CNCC(O)COc1cccc(-c2nc(NC3CCCN(S(C)(=O)=O)C3)c(C)c(-c3c(C)noc3C)n2)c1 (centres unmarked) [Example 198-1a],< 100 nM
18,CNC[C@@H](O)COc1ccc(Cl)c(-c2nc(N[C@H]3CO[C@H](C)C3)c(C)c(-c3c(C)noc3C)n2)c1 [Example 198-3],< 100 nM
19,CNCC(O)COc1cccc(-c2nc(-c3c(C)noc3C)c(C)c(N3C[C@H](C)O[C@@H](C)C3)n2)c1 (some centres unmarked) [Example 199-1a],< 100 nM
20,CNC[C@@H](O)COc1ccc(Cl)c(-c2nc(-c3c(C)noc3C)c(C)c(N3CCc4ncccc43)n2)c1 [Example 199-3],< 100 nM
21,CNCC(O)COc1cccc(-c2nc(-c3c(C)noc3C)c(C)c(N3CCOC(C)(C)C3)n2)c1 (centres unmarked) [Example 200-1a],< 100 nM
